Columns and labels:
[1] = tested on: pulmonary hypertension in ARDS; assay: Inhaled NO versus i.v. prostacyclin in adult with ARDS (first subject); assay type: in vivo, human
Procedure: First subject. The patient had suffered for three weeks from adult respiratory distress syndrome (ARDS) due to aspiration pneumonia. There was diffuse pulmonary edema and a large QVA /QT (30%). After 21 days of venovenous extracorporeal membrane oxygenator support (3 liters/min blood flow), the mean PAP was 55 mm Hg.
The short term effects of inhaled nitric oxide were compared with those of i.v. prostacyclin (PGI2; 5ng/kg/min). Mean pulmonary arterial pressure (PAP), right ventricular ejection fraction (RVEF) and gas exchange variables were evaluated. RVEF was assessed by thermodilution, and gas exchange alterations were analyzed using the multiple inert gas elimination technique (MIGET). MIGET and RVEF date were obtained on two different occasions. Ventilator settings were tidal volume 6 ml/kg, respiratory rate 14/min, Fi O2 0.4-0.48 and 5 cm H2 O of PEEP (positive end expiratory pressure).

[2] = tested on: methacholine bronchoconstriction; assay: NO and terbutaline aerosol during methacholine infusion; assay type: in vivo, Hartley strain guinea pigs; conditions: NO gas before or after inhaled terbutaline
Procedure: (§1) Male Hartley strain guinea pigs (300-440g body wt) were anesthetized with α-chloralose (50 mg/kg) and urethane (500 mg/kg) (Drazen et al., J. Appl. Physiol. 48:613-618, 1980). A tracheostomy was performed, and the animals were intubated with a tubing adaptor (ID 1.65 mm) and ventilated with a small animal ventilator (Harvard Apparatus, a division of Ealing Scientific, Natick, Mass.) at 8 ml/kg and 60 breaths/min. A jugular vein was cannulated for intravenous administration of drugs. The chest was opened by bilateral excision of a portion of the ribs anteriorly so that the lungs were exposed to atmospheric pressure (Shore and Drazen, J. Appl. Physiol. 67:2504-2511, 1989). A positive end expiratory pressure of 3-4 cmH2 O was provided.
(§2) Guinea pigs were then placed inside a plethysmograph (Amdur and Mead, Am. J. Physiol. 192:363-368, 1958), that was connected to a large reservoir containing copper mesh to maintain the plethysmograph isothermal. Plethysmograph pressure was measured with a differential pressure transducer (Celesco, Canoga Park, Calif.); the opposite side of this transducer was connected to a similar reservoir. Pressure at the airway opening was measured from a side tap in the tracheal canula. Transpulmonary pressure was measured with a differential pressure transducer (Celesco) as the difference between airway opening pressure and the pressure inside the plethysmograph. […]

airway resistance = assay: Methacholine infusion alone (stability of bronchoconstrictor model); assay type: in vivo, Hartley strain guinea pigs; conditions: methacholine infusion (FIG. 13)
Procedure: as §1, §2

[3] = tested on: persistent pulmonary hypertension of the newborn (PPHN); assay type: in vivo, human; conditions: standard dosage, infused, during nitric oxide
Procedure: First subject. Through compassionate use, nitric oxide was administered to an infant suffering from persistent pulmonary hypertension and congenital heart disease. As a result of prolonged ventilation, absence of a preductal arterial blood sampling site, and the existence of the atrial-ventricular (AV) canal, the patient was not included in the PPHN study mentioned above.
The patient was a 3225 gm, full term person who had been treated with extracorporeal membrane oxygenation (ECMO) because of the severity of their congenital heart disease and profound hypoxemia. They had been taken off ECMO and was being maintained intubated and ventilated in the newborn intensive care unit. They subsequently became progressively hypoxemic, as reflected in their post-ductal pulse oximetry (POX) values. By the time they were taken to the catheterization laboratory to confirm the existence of the A-V canal and to determine if some emergent cardiac surgery was needed, they were receiving maximal medical and ventilatory life support and remained dangerously hypoxemic. Under these circumstances, we were granted consent to treat the patient with nitric oxide.
Upon arrival to the catheterization laboratory, the patient was extremely cyanotic. They were treated with fentanyl, oxygen, hyperventilation and intravenous fluid boluses to stabilize them prior to administering NO.
We utilized a regulator to step-down the pressure of the NO into a blender, which allowed us to adjust the relative amounts of the 800 ppm NO/N2 and 100% N2 supplies. Treating the patient with pure oxygen, we increased the flow of N2 through a flow regulator into the inspiratory circuit of the breathing cicuit until the FI O2 was 0.9. This provided a 1:10 dilution of the nitrogen gas. We then used the blender to adjust the relative amounts of N2 and […] to provide 0 to 80 ppm of NO.

[4] = occasion #1, PGI2 5ng/kg/min i.v.
[5] = occasion #2, PGI2 5ng/kg/min i.v.

Question: Which results are given for CCCCC[C@H](O)/C=C/[C@@H]1[C@H]2C/C(=C/CCCC(=O)O)O[C@H]2C[C@H]1O [PGI2, prostacyclin, reference compound]?
Answer: QVA /QT ([1]; PGI2, i.v.): 57%; PAP and RVEF ([1]; inhaled NO and i.v. PGI2, text): lowered PAP and improved RVEF; MAP [1, 4]: 81 mm Hg; PAP [1, 4]: 46 mm Hg; PCWP [1, 4]: 12 mm Hg; PaO2 [1, 4]: 74 torr; QA /QT [1, 4]: 57%; VD /VT [1, 4]: 51%; low VD /Q [1, 4]: 0%; MAP [1, 5]: 86 mm Hg; PAP [1, 5]: 42 mm Hg; PCWP [1, 5]: 14 mm Hg; PaO2 [1, 5]: 81 torr; RVEF [1, 5]: 42%

Question: With CC(C)(C)NCC(O)c1cc(O)cc(O)c1 (centres unmarked) [terbutaline, reference compound] as the compound, how does the “bronchodilating effects of NO plus terbutaline” value [2] read?
Answer: The value was “additive”.

Question: How did the airway resistance (airway resistance) turn out when CC(=O)OC(C)C[N+](C)(C)C (centres unmarked) [methacholine] was run?
Answer: Its airway resistance is “stably increasing levels of airway resistance for up to one hour”.

Question: For CCCCC[C@H](O)/C=C/[C@H]1[C@H](O)CC(=O)[C@@H]1CCCCCCC(=O)O [prostaglandin E1, reference compound], which “effect of prostaglandin infusion on need for nitric oxide” value [3] is on record?
Answer: Its value is “nitric oxide could not be discontinued without the return of dangerously low oxygen saturations”.
